The record followed here is US8802597B2, “Herbicidal pyrimidines” (E I du Pont de Nemours and Company, priority 2003, dated 2014).

Holding throughout (assay): Test A pre/postemergence
Common to all, as to assay type: in vivo

In experiment [1] the test system is velvetleaf (Abutilon theophrasti). Put shortly:
(§1)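 Seeds in loam–sand blend received preemergence directed soil spray and, concurrently, postemergence application (plants 2–10 cm, 1–2-leaf stage) of compound in non-phytotoxic solvent with surfactant. After about ten days in greenhouse, injury rated visually versus untreated controls, 0 (no effect) to 100 (complete control).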

Experiment [2] deals with redroot pigweed (Amaranthus retroflexus). Put shortly: as §1
For experiment [3], the system named is barnyardgrass (Echinochloa crus-galli). Put shortly:
as §1

Experiment [4] concerns morningglory (Ipomoea spp.). The method, boiled down:
as §1

Experiment [5] concerns crabgrass (Digitaria sanguinalis). Put shortly:
as §1

In experiment [6] the test system is giant foxtail (Setaria faberi). The method, boiled down: as §1
Where [7] appears, read: Postemergence, 125 g ai/ha, 0 to 100 scale (0 no effect, 100 complete control).
Where [8] appears, read: Postemergence, 500 g ai/ha, 0 to 100 scale (0 no effect, 100 complete control).
The mark [9] stands for this setting: Preemergence, 125 g ai/ha, 0 to 100 scale where 0 is no effect and 100 is complete control, approximately ten days.
[10] abbreviates: Preemergence, 500 g ai/ha, 0 to 100 scale where 0 is no effect and 100 is complete control, approximately ten days.

Consider `CCOC(=O)c1nc(-c2cccc(Cl)c2)nc(N)c1Cl` [Compound 100], for which the “Plant response rating, Velvetleaf” value is reported as 50 in experiment [1] (setting [7]), 70 in experiment [1] (setting [8]), 0 in experiment [1] (setting [9]) and 0 in experiment [1] (setting [10]). Further, the “Plant response rating, Pigweed” value in experiment [2] (setting [7]) came out at 10; in experiment [2] (setting [8]), 25; in experiment [2] (setting [9]) it was 20; in experiment [2] (setting [10]), 0. The “Plant response rating, Barnyardgrass” value stood at 0 in experiment [3] (setting [7]), 10 in experiment [3] (setting [8]), 5 in experiment [3] (setting [9]) and 0 in experiment [3] (setting [10]). For the same molecule, the “Plant response rating, Morningglory” value in experiment [4] (setting [7]) stood at 40; in experiment [4] (setting [8]), 55; in experiment [4] (setting [9]) it was 0; in experiment [4] (setting [10]) it was 0. Besides, the “Plant response rating, Crabgrass” value in experiment [5] (setting [7]) came out at 0; in experiment [5] (setting [8]), 0; in experiment [5] (setting [9]), 10; in experiment [5] (setting [10]), 0. In addition, the “Plant response rating, Foxtail, Giant” value in experiment [6] (setting [7]), in experiment [6] (setting [8]), in experiment [6] (setting [9]) and in experiment [6] (setting [10]) was 0 in each case.

Consider `COC(=O)c1nc(-c2ccc(SC)cc2)nc(N)c1Cl` [Compound 121], for which the “Plant response rating, Velvetleaf” value in experiment [1] (setting [7]), in experiment [1] (setting [8]), in experiment [1] (setting [9]) and in experiment [1] (setting [10]) was 0 throughout. The “Plant response rating, Pigweed” value in experiment [2] (setting [7]), in experiment [2] (setting [8]), in experiment [2] (setting [9]) and in experiment [2] (setting [10]) was 0 throughout. Moreover, the “Plant response rating, Barnyardgrass” value in experiment [3] (setting [7]) is reported as 0; in experiment [3] (setting [8]) it was 5; in experiment [3] (setting [9]) it was 0; in experiment [3] (setting [10]), 0. Moreover, the “Plant response rating, Morningglory” value was found to be 0 in experiment [4] (setting [7]), 10 in experiment [4] (setting [8]), 0 in experiment [4] (setting [9]) and 0 in experiment [4] (setting [10]). The “Plant response rating, Crabgrass” value in experiment [5] (setting [7]), in experiment [5] (setting [8]), in experiment [5] (setting [9]) and in experiment [5] (setting [10]) was 0 each time. Also, the “Plant response rating, Foxtail, Giant” value in experiment [6] (setting [7]), in experiment [6] (setting [8]), in experiment [6] (setting [9]) and in experiment [6] (setting [10]) was 0 each time.

Regarding `CCOC(=O)c1nc(-c2ccccc2F)nc(N)c1Cl` [Compound 106], the “Plant response rating, Velvetleaf” value in experiment [1] (setting [7]) is recorded as 25; in experiment [1] (setting [8]), 55; in experiment [1] (setting [9]), 5; in experiment [1] (setting [10]), 30. The “Plant response rating, Pigweed” value is reported as 15 in experiment [2] (setting [7]), 70 in experiment [2] (setting [8]), 0 in experiment [2] (setting [9]) and 30 in experiment [2] (setting [10]). Also, the “Plant response rating, Barnyardgrass” value is reported as 0 in experiment [3] (setting [7]), 5 in experiment [3] (setting [8]), 0 in experiment [3] (setting [9]) and 5 in experiment [3] (setting [10]). In addition, the “Plant response rating, Morningglory” value amounted to 20 in experiment [4] (setting [7]), 35 in experiment [4] (setting [8]), 0 in experiment [4] (setting [9]) and 0 in experiment [4] (setting [10]). Further, the “Plant response rating, Crabgrass” value in experiment [5] (setting [7]), in experiment [5] (setting [8]), in experiment [5] (setting [9]) and in experiment [5] (setting [10]) was 0 in each case. For the same molecule, the “Plant response rating, Foxtail, Giant” value in experiment [6] (setting [7]), in experiment [6] (setting [8]), in experiment [6] (setting [9]) and in experiment [6] (setting [10]) was 0 throughout.

With `COC(=O)c1nc(-c2ccc(C)c(F)c2)nc(N)c1Cl` [Compound 86], the “Plant response rating, Velvetleaf” value in experiment [1] (setting [7]) is given as 70; in experiment [1] (setting [8]), 85; in experiment [1] (setting [9]) it was 0; in experiment [1] (setting [10]), 10. Further, the “Plant response rating, Pigweed” value is listed as 20 in experiment [2] (setting [7]), 50 in experiment [2] (setting [8]), 0 in experiment [2] (setting [9]) and 5 in experiment [2] (setting [10]). The “Plant response rating, Barnyardgrass” value in experiment [3] (setting [7]) amounted to 10; in experiment [3] (setting [8]) it was 30; in experiment [3] (setting [9]), 0; in experiment [3] (setting [10]) it was 0. The “Plant response rating, Morningglory” value was found to be 0 in experiment [4] (setting [7]), 20 in experiment [4] (setting [8]), 0 in experiment [4] (setting [9]) and 0 in experiment [4] (setting [10]). Moreover, the “Plant response rating, Crabgrass” value in experiment [5] (setting [7]), in experiment [5] (setting [8]), in experiment [5] (setting [9]) and in experiment [5] (setting [10]) was 0 throughout. In addition, the “Plant response rating, Foxtail, Giant” value in experiment [6] (setting [7]), in experiment [6] (setting [8]), in experiment [6] (setting [9]) and in experiment [6] (setting [10]) was 0 in each case.

For the molecule `COC(=O)c1nc(-c2ccc(C)cc2)nc(N)c1Br` [Compound 82], the “Plant response rating, Velvetleaf” value is 90 in experiment [1] (setting [7]), 90 in experiment [1] (setting [8]), 5 in experiment [1] (setting [9]) and 35 in experiment [1] (setting [10]). For the same molecule, the “Plant response rating, Pigweed” value was 45 in experiment [2] (setting [7]), 75 in experiment [2] (setting [8]), 0 in experiment [2] (setting [9]) and 70 in experiment [2] (setting [10]). Further, the “Plant response rating, Barnyardgrass” value in experiment [3] (setting [7]) amounted to 40; in experiment [3] (setting [8]), 50; in experiment [3] (setting [9]), 0; in experiment [3] (setting [10]), 15. The “Plant response rating, Morningglory” value in experiment [4] (setting [7]) is 20; in experiment [4] (setting [8]), 40; in experiment [4] (setting [9]), 0; in experiment [4] (setting [10]), 0. In addition, the “Plant response rating, Crabgrass” value in experiment [5] (setting [7]), in experiment [5] (setting [8]), in experiment [5] (setting [9]) and in experiment [5] (setting [10]) was 0 each time. Further, the “Plant response rating, Foxtail, Giant” value in experiment [6] (setting [7]), in experiment [6] (setting [8]), in experiment [6] (setting [9]) and in experiment [6] (setting [10]) was 0 throughout.

Turning to `CC1(C)OCC(COC(=O)c2nc(C3CC3)nc(N)c2Cl)O1` (stereo not drawn) [Compound 147], the “Plant response rating, Velvetleaf” value is recorded as 80 in experiment [1] (setting [7]), 100 in experiment [1] (setting [8]), 75 in experiment [1] (setting [9]) and 95 in experiment [1] (setting [10]). Further, the “Plant response rating, Pigweed” value in experiment [2] (setting [7]) is on record as 85; in experiment [2] (setting [8]), 95; in experiment [2] (setting [9]), 80; in experiment [2] (setting [10]), 90. For the same molecule, the “Plant response rating, Barnyardgrass” value is 80 in experiment [3] (setting [7]), 90 in experiment [3] (setting [8]), 70 in experiment [3] (setting [9]) and 85 in experiment [3] (setting [10]). For the same molecule, the “Plant response rating, Morningglory” value is on record as 85 in experiment [4] (setting [7]), 100 in experiment [4] (setting [8]), 95 in experiment [4] (setting [9]) and 100 in experiment [4] (setting [10]). Besides, the “Plant response rating, Crabgrass” value in experiment [5] (setting [7]) came to 25; in experiment [5] (setting [8]) it was 75; in experiment [5] (setting [9]) it was 70; in experiment [5] (setting [10]), 80. In addition, the “Plant response rating, Foxtail, Giant” value in experiment [6] (setting [7]) was 60; in experiment [6] (setting [8]), 90; in experiment [6] (setting [9]), 40; in experiment [6] (setting [10]), 85.

On to `CCOC(=O)c1nc(-c2ccc(C(F)(F)F)cc2)nc(N)c1Cl` [Compound 104], for which the “Plant response rating, Velvetleaf” value is given as 70 in experiment [1] (setting [7]), 80 in experiment [1] (setting [8]), 0 in experiment [1] (setting [9]) and 10 in experiment [1] (setting [10]). Also, the “Plant response rating, Pigweed” value in experiment [2] (setting [7]) amounted to 30; in experiment [2] (setting [8]), 45; in experiment [2] (setting [9]), 0; in experiment [2] (setting [10]), 10. In addition, the “Plant response rating, Barnyardgrass” value in experiment [3] (setting [7]) is 0; in experiment [3] (setting [8]) it was 10; in experiment [3] (setting [9]), 0; in experiment [3] (setting [10]), 5. For the same molecule, the “Plant response rating, Morningglory” value in experiment [4] (setting [7]) is 25; in experiment [4] (setting [8]), 40; in experiment [4] (setting [9]), 0; in experiment [4] (setting [10]), 0. For the same molecule, the “Plant response rating, Crabgrass” value came out at 15 in experiment [5] (setting [7]), 30 in experiment [5] (setting [8]), 0 in experiment [5] (setting [9]) and 10 in experiment [5] (setting [10]). The “Plant response rating, Foxtail, Giant” value in experiment [6] (setting [7]) stood at 0; in experiment [6] (setting [8]) it was 5; in experiment [6] (setting [9]) it was 0; in experiment [6] (setting [10]) it was 5.
